Where a SMILES comes first, the peptide text is derived from it. Bridges are numbered along the chain shown (N, C = ends).
Assay: Determination of the protein binding (90% serum, 30 kDa filter, HPLC)
Assay type: in vitro ADME
Conditions: serum
Procedure: Protein binding assays were performed as follows. The purified peptides were mixed with 90% serum and centrifuged through a 30 kDa filter. The ultra-filtrate and the non filtrated serum samples were quantified by HPLC measurements and the protein binding was subsequently calculated.
Compound `CC(C)[C@@H]1NC(=O)CNC(=O)[C@H](CC(N)=O)NC(=O)[C@H](CCCNC(=N)N)NC(=O)[C@H](Cc2ccc(O)cc2)NC(=O)[C@H](C(C)C)NC(=O)[C@@H]2CSSC[C@H](NC(=O)[C@H](CO)NC(=O)[C@H](CCCNC(=N)N)NC1=O)C(=O)N[C@@H](Cc1ccc(O)cc1)C(=O)N[C@@H](CCCNC(=N)N)C(=O)N[C@@H](CCCNC(=N)N)C(=O)N[C@H](C(=O)N[C@@H](CC(N)=O)C(=O)O)CSSC[C@H](NC(=O)[C@H](Cc1ccccc1)NC(=O)CN)C(=O)N[C@@H](Cc1c[nH]c3ccccc13)C(=O)N[C@@H](Cc1ccc(O)cc1)C(=O)N[C@@H](C(C)C)C(=O)N2` [compound 44] (H-GFCWYVCVYRNGVRSCYRRCN-OH; disulfide 3-20, 7-16) has a fraction unbound of 0.15. Work on `CC(C)[C@@H]1NC(=O)CNC(=O)[C@H](CC(N)=O)NC(=O)[C@H](CCCNC(=N)N)NC(=O)[C@H](Cc2ccc(O)cc2)NC(=O)[C@H](C(C)C)NC(=O)[C@@H]2CSSC[C@H](NC(=O)[C@H]([C@@H](C)O)NC(=O)[C@H](CCCNC(=N)N)NC1=O)C(=O)N[C@@H](Cc1ccc(O)cc1)C(=O)N[C@@H](CCCNC(=N)N)C(=O)N[C@@H](CCCNC(=N)N)C(=O)N[C@H](C(=O)N[C@@H](CC(N)=O)C(=O)O)CSSC[C@H](NC(=O)[C@H](Cc1ccccc1)NC(=O)CN)C(=O)N[C@@H](Cc1c[nH]c3ccccc13)C(=O)N[C@@H](Cc1ccc(O)cc1)C(=O)N[C@@H](C(C)C)C(=O)N2` [compound 45] (H-GFCWYVCVYRNGVRTCYRRCN-OH; disulfide 3-20, 7-16) yielded a fraction unbound of 0.02. For `CC(C)[C@@H]1NC(=O)CNC(=O)[C@H](CC(N)=O)NC(=O)[C@H](CCCNC(=N)N)NC(=O)[C@H](Cc2ccc(O)cc2)NC(=O)[C@H](C(C)C)NC(=O)[C@@H]2CSSC[C@H](NC(=O)[C@H](C(C)C)NC(=O)[C@H](CCCNC(=N)N)NC1=O)C(=O)N[C@@H](Cc1c[nH]cn1)C(=O)N[C@@H](CCCNC(=N)N)C(=O)N[C@@H](CCCNC(=N)N)C(=O)N[C@H](C(=O)N[C@@H](CC(N)=O)C(=O)O)CSSC[C@H](NC(=O)[C@H](Cc1ccccc1)NC(=O)CN)C(=O)N[C@@H](Cc1c[nH]c3ccccc13)C(=O)N[C@@H](Cc1ccc(O)cc1)C(=O)N[C@@H](C(C)C)C(=O)N2` [compound 46] (H-GFCWYVCVYRNGVRVCHRRCN-OH; disulfide 3-20, 7-16 (inferred); N-terminus and C-terminus assumed), the fraction unbound was 0.12. Compound `CC(C)[C@@H]1NC(=O)CNC(=O)[C@H](CC(N)=O)NC(=O)[C@H](CCCNC(=N)N)NC(=O)[C@H](Cc2ccc(O)cc2)NC(=O)[C@H](C(C)C)NC(=O)[C@@H]2CSSC[C@H](NC(=O)[C@H](C(C)C)NC(=O)[C@H](CCCNC(=N)N)NC1=O)C(=O)N[C@@H](CCCCN)C(=O)N[C@@H](CCCNC(=N)N)C(=O)N[C@@H](CCCNC(=N)N)C(=O)N[C@H](C(=O)N[C@@H](CC(N)=O)C(=O)O)CSSC[C@H](NC(=O)[C@H](Cc1ccccc1)NC(=O)CN)C(=O)N[C@@H](Cc1c[nH]c3ccccc13)C(=O)N[C@@H](Cc1ccc(O)cc1)C(=O)N[C@@H](C(C)C)C(=O)N2` [compound 47] (H-GFCWYVCVYRNGVRVCKRRCN-OH; disulfide 3-20, 7-16 (inferred); N-terminus and C-terminus assumed) has a fraction unbound of 0.11. Compound `CC(C)[C@@H]1NC(=O)CNC(=O)[C@H](CC(N)=O)NC(=O)[C@H](CCCNC(=N)N)NC(=O)[C@H](Cc2ccc(O)cc2)NC(=O)[C@H](C(C)C)NC(=O)[C@@H]2CSSC[C@H](NC(=O)[C@H](C(C)C)NC(=O)[C@H](CCCNC(=N)N)NC1=O)C(=O)N[C@@H](CC(N)=O)C(=O)N[C@@H](CCCNC(=N)N)C(=O)N[C@@H](CCCNC(=N)N)C(=O)N[C@H](C(=O)N[C@@H](CC(N)=O)C(=O)O)CSSC[C@H](NC(=O)[C@H](Cc1ccccc1)NC(=O)CN)C(=O)N[C@@H](Cc1c[nH]c3ccccc13)C(=O)N[C@@H](Cc1ccc(O)cc1)C(=O)N[C@@H](C(C)C)C(=O)N2` [compound 48] (H-GFCWYVCVYRNGVRVCNRRCN-OH; disulfide 3-20, 7-16 (inferred); N-terminus and C-terminus assumed) has a fraction unbound of 0.32. With `CC(C)[C@@H]1NC(=O)CNC(=O)[C@H](CC(N)=O)NC(=O)[C@H](CCCNC(=N)N)NC(=O)[C@H](Cc2ccc(O)cc2)NC(=O)[C@H](C(C)C)NC(=O)[C@@H]2CSSC[C@H](NC(=O)[C@H](C(C)C)NC(=O)[C@H](CCCNC(=N)N)NC1=O)C(=O)N[C@@H](Cc1ccc(O)cc1)C(=O)N[C@@H](CCCNC(=N)N)C(=O)N[C@@H](CCCNC(=N)N)C(=O)N[C@H](C(=O)N[C@@H](CO)C(=O)O)CSSC[C@H](NC(=O)[C@H](Cc1ccccc1)NC(=O)CN)C(=O)N[C@@H](Cc1c[nH]c3ccccc13)C(=O)N[C@@H](Cc1ccc(O)cc1)C(=O)N[C@@H](C(C)C)C(=O)N2` [compound 53] (H-GFCWYVCVYRNGVRVCYRRCS-OH; disulfide 3-20, 7-16 (inferred); N-terminus and C-terminus assumed) the fraction unbound was 0.01. Compound `CC(C)[C@@H]1NC(=O)CNC(=O)[C@H](CC(N)=O)NC(=O)[C@H](CCCNC(=N)N)NC(=O)[C@H](Cc2ccc(O)cc2)NC(=O)[C@H](C(C)C)NC(=O)[C@@H]2CSSC[C@H](NC(=O)[C@H](C(C)C)NC(=O)[C@H](CCCNC(=N)N)NC1=O)C(=O)N[C@@H](Cc1ccc(O)cc1)C(=O)N[C@@H](CCCNC(=N)N)C(=O)N[C@@H](CCCNC(=N)N)C(=O)N[C@H](C(=O)N[C@H](C(=O)O)[C@@H](C)O)CSSC[C@H](NC(=O)[C@H](Cc1ccccc1)NC(=O)CN)C(=O)N[C@@H](Cc1c[nH]c3ccccc13)C(=O)N[C@@H](Cc1ccc(O)cc1)C(=O)N[C@@H](C(C)C)C(=O)N2` [compound 54] (H-GFCWYVCVYRNGVRVCYRRCT-OH; disulfide 3-20, 7-16 (inferred); N-terminus and C-terminus assumed) has a fraction unbound of 0.01. `CC(C)[C@@H]1NC(=O)CNC(=O)[C@H](CC(N)=O)NC(=O)[C@H](CCCNC(=N)N)NC(=O)[C@H](Cc2ccc(O)cc2)NC(=O)[C@H](C(C)C)NC(=O)[C@@H]2CSSC[C@H](NC(=O)[C@H](C(C)C)NC(=O)[C@H](CCCNC(=N)N)NC1=O)C(=O)N[C@@H](CCCNC(=N)N)C(=O)N[C@@H](CCCNC(=N)N)C(=O)N[C@@H](CCCNC(=N)N)C(=O)N[C@H](C(=O)N[C@@H](CC(N)=O)C(=O)O)CSSC[C@H](NC(=O)[C@H](Cc1ccccc1)NC(=O)CN)C(=O)N[C@@H](Cc1ccccc1)C(=O)N[C@@H](Cc1ccc(O)cc1)C(=O)N[C@@H](C(C)C)C(=O)N2` [compound 56] (H-GFCFYVCVYRNGVRVCRRRCN-OH; disulfide 3-20, 7-16 (inferred); N-terminus and C-terminus assumed) showed a fraction unbound of 0.06. For `CC(C)[C@@H]1NC(=O)CNC(=O)[C@H](CC(N)=O)NC(=O)[C@H](CCCNC(=N)N)NC(=O)[C@H](Cc2ccc(O)cc2)NC(=O)[C@H](C(C)C)NC(=O)[C@@H]2CSSC[C@H](NC(=O)[C@H](C(C)C)NC(=O)[C@H](CCCNC(=N)N)NC1=O)C(=O)N[C@@H](Cc1ccc(O)cc1)C(=O)N[C@@H](CCCNC(=N)N)C(=O)N[C@@H](CCCNC(=N)N)C(=O)N[C@H](C(=O)N[C@@H](CC(N)=O)C(=O)O)CSSC[C@H](NC(=O)[C@H](Cc1ccccc1)NC(=O)CN)C(=O)NCC(=O)N[C@@H](Cc1c[nH]cn1)C(=O)N[C@@H](C(C)C)C(=O)N2` [compound 60] (H-GFCGHVCVYRNGVRVCYRRCN-OH; disulfide 3-20, 7-16 (inferred); N-terminus and C-terminus assumed), the fraction unbound was 0.36. For `CC(C)[C@@H]1NC(=O)CNC(=O)[C@H](CC(N)=O)NC(=O)[C@H](CCCNC(=N)N)NC(=O)[C@H](Cc2ccc(O)cc2)NC(=O)[C@H](C(C)C)NC(=O)[C@@H]2CSSC[C@H](NC(=O)[C@H](C(C)C)NC(=O)[C@H](CCCNC(=N)N)NC1=O)C(=O)N[C@@H](Cc1ccc(O)cc1)C(=O)N[C@@H](CCCNC(=N)N)C(=O)N[C@@H](CCCNC(=N)N)C(=O)N[C@H](C(=O)N[C@@H](CC(N)=O)C(=O)O)CSSC[C@H](NC(=O)[C@H](Cc1ccccc1)NC(=O)CN)C(=O)NCC(=O)N[C@@H](CCCNC(=N)N)C(=O)N[C@@H](C(C)C)C(=O)N2` [compound 61] (H-GFCGRVCVYRNGVRVCYRRCN-OH; disulfide 3-20, 7-16 (inferred); N-terminus and C-terminus assumed), the fraction unbound was 0.28. With `CC(C)[C@@H]1NC(=O)CNC(=O)[C@H](CC(N)=O)NC(=O)[C@H](CCCNC(=N)N)NC(=O)[C@H](Cc2ccc(O)cc2)NC(=O)[C@H](C(C)C)NC(=O)[C@@H]2CSSC[C@H](NC(=O)[C@H](C(C)C)NC(=O)[C@H](CCCNC(=N)N)NC1=O)C(=O)N[C@@H](CO)C(=O)N[C@@H](CCCNC(=N)N)C(=O)N[C@@H](CCCNC(=N)N)C(=O)N[C@H](C(=O)N[C@@H](CC(N)=O)C(=O)O)CSSC[C@H](NC(=O)[C@H](Cc1ccccc1)NC(=O)CN)C(=O)N[C@@H](Cc1c[nH]c3ccccc13)C(=O)N[C@@H](CCCCN)C(=O)N[C@@H](C(C)C)C(=O)N2` [compound 68] (H-GFCWKVCVYRNGVRVCSRRCN-OH; disulfide 3-20, 7-16 (inferred); N-terminus and C-terminus assumed) the fraction unbound was 0.13. `CC(C)[C@@H]1NC(=O)CNC(=O)[C@H](CC(N)=O)NC(=O)[C@H](CCCNC(=N)N)NC(=O)[C@H](Cc2ccc(O)cc2)NC(=O)[C@H](C(C)C)NC(=O)[C@@H]2CSSC[C@H](NC(=O)[C@H](C(C)C)NC(=O)[C@H](CCCNC(=N)N)NC1=O)C(=O)N[C@@H](Cc1c[nH]cn1)C(=O)N[C@@H](CCCNC(=N)N)C(=O)N[C@@H](CCCNC(=N)N)C(=O)N[C@H](C(=O)N[C@@H](CC(N)=O)C(=O)O)CSSC[C@H](NC(=O)[C@H](Cc1ccccc1)NC(=O)CN)C(=O)N[C@@H](Cc1c[nH]c3ccccc13)C(=O)N[C@@H](CC(N)=O)C(=O)N[C@@H](C(C)C)C(=O)N2` [compound 70] (H-GFCWNVCVYRNGVRVCHRRCN-OH; disulfide 3-20, 7-16 (inferred); N-terminus and C-terminus assumed) gave a fraction unbound of 0.21.

Reference: patent US20160158317A1, “Antimicrobial Peptide Variants and Polynucleotides Encoding Same” (Adenium Biotech A/S, priority 2010, published 2016)
